By IC50 is commonly meant the concentration at which inhibition is half-maximal.

What all share (assay type): cell-based
One series deals with HT29. Description: XTT cell viability test on colon cancer cell line HT29. Conditions: 72 hours incubation. An excerpt: Three further JW-substances (JW-7, JW-8, JW-9) having the general structure according to formula 1b above with acyloxybenzyl-groups of different lengths (from 4 to 17 carbon atoms), but being asymmetrically substituted (i.e. having different groups R^A1 and R^B1), in four different concentrations (1.11, 3.33, 10 and 30 µmol/l) were investigated. As a comparison, 5-FU was used in the same concentrations. The investigated cell lines were the colon cancer cell lines CaCo2 and HT29.
(§1) The experiments consisted of three steps. On the first day, the cells were planted on 96-well-plates and left for growing and adhering for 24 hours. On the second day, the substances were applied in the known concentrations, diluted in the cell-line specific medium. After an incubation period of 72 hours, XTT-colouring (see, e.g., Roehm NW, Rodgers GH, Hatfield SM, Glasebrook AL, 1991, An improved colorimetric assay for cell proliferation and viability utilizing the tetrazolium salt XTT, J Immunol Methods, 142(2):257-65. doi: 10.1016/0022-1759(91)90114-u) was applied and the absorbance was measured after 6 hours. Table 2. Residues RA1 and RB1 of three further 5-Fluorouracil nucleoside triphosphate prodrugs according to the invention, being asymmetrically substituted with residues RA1 and RB1.
For orientation: Formazan colour is commonly taken as a measure of viable cells.

In another series the test system is MDA-MB231. Briefly: XTT cytotoxicity test on triple-negative breast carcinoma cell line. Conditions: 25, 12.5 and 6.25 µmol/l, compared with 5-FU, 72 hours incubation. An excerpt: In a first approach, six different JW-substances (JW-1, JW-2, JW-3, JW-4, JW-5, JW-6) having the general structure according to formula 1b above with acyloxybenzyl-groups of different lengths (from 8 to 13 carbon atoms) in three different concentrations (25, 12.5 and 6.25 µmol/l) were investigated. As a comparison, 5-FU was used in the same concentrations. The investigated cell line was a triple-negative breast carcinoma (MDA-MB231), see Fig. 2. The treatment of Triple Negative Breast Cancer is not well standardised, however, one of the treatment options includes 5-FU (Yin L, Duan JJ, Bian XW, Yu SC. Triple-negative breast cancer molecular subtyping and treatment progress. Breast Cancer Res. 2020 Jun 9;22(1):61. doi: 10.1186/s13058-020-01296-5. PMID: 32517735; PMCID: PMC7285581). […] Table 1. Residues RA1 and RB1 of six different symmetrically masked 5-Fluorouracil nucleoside triphosphate prodrugs according to the invention.
The experiments consisted of three steps. […] After an incubation period of 72 hours, XTT-colouring (see, e.g., Roehm NW, Rodgers GH, Hatfield SM, Glasebrook AL, 1991, An improved colorimetric assay for cell proliferation and viability utilizing the tetrazolium salt XTT, J Immunol Methods, 142(2):257-65. doi: 10.1016/0022-1759(91)90114-u) was applied and the absorbance was measured after 6 hours. […]

For the next series, the system named is SW620. Description: XTT cytotoxicity test on colon carcinoma cell line, wider concentration range. Conditions: 30 µmol in triple dilution up to 0.014 µmol. On the procedure: Further investigations were performed in relation these two substances (JW-1 and JW-4). The same procedure as in the first experiments was used, but with a wider concentration range in order to examine the onset of cytotoxicity and the therapeutic range more closely. Thus, JW-1, JW-4 and 5-FU were applied to the cells (colon carcinoma cell line SW620) in the concentrations of 30 µmol in triple dilution up to 0.014 µmol and then examined according to the same scheme. […] A major advantage is, however, their increased therapeutic range. The cytotoxicity threshold is much lower than that of 5-FU. In the case of 5-FU, first cytotoxic effects can be detected between 1 and 3 µmol. In comparison, the threshold for JW-1 and JW-4 is below 1 µmol.
as §1

C10/C12-TriPPPro [JW-09] gave an IC50 in the series with HT29 (1.11, 3.33, 10 and 30 µmol/l) of 1 to 2 µM.

C11-TriPPPro [JW-4]: the cytotoxic effects entry in the series with MDA-MB231 is “significantly stronger cytotoxicity”. In addition, in the series with SW620, the “IC-50 values compared with 5-FU” value is “at least as low as 5-FU” and the “cytotoxicity threshold (first cytotoxic effects)” value is given as “below 1 µmol”. C7/C9-TriPPPro [JW-08] displayed an IC50 in the series on HT29 (1.11, 3.33, 10 and 30 µmol/l) of 2 µM. Consider C8-TriPPPro [JW-1], for which, in the series on MDA-MB231, the cytotoxic effects result is “significantly stronger cytotoxicity”. Moreover, in the series with SW620, the “IC-50 values compared with 5-FU” value is on record as “at least as low as 5-FU” and the “cytotoxicity threshold (first cytotoxic effects)” value was “below 1 µmol”.

Regarding `O=c1[nH]cc(F)c(=O)[nH]1` [Compound 5-FU, 5-fluorouracil], in the series on HT29 (Homo sapiens, HT-29, 1.11, 3.33, 10 and 30 µmol/l), the IC50 was about 15 µM.

In the series with HT29 (1.11, 3.33, 10 and 30 µmol/l), C4/C17-TriPPPro [JW-07] displayed an IC50 of 4 to 5 µM.

These data come from patent EP4151646A1, “5-FLUOROURACIL DERIVATIVES AS PRODRUGS FOR CANCER TREATMENT” (Universität Hamburg, priority 2021, dated 2023).
